Consider 18 compounds from patent US8378117B2 (priority 2005, dated 2013).

One test deals with T1, CB2 receptor (Homo sapiens, UniProt P34972).
T1 construct: expressed in transfected cells
The experiment in a line: Binding assay for CB2 agonists or inverse agonists (SK-N-MC membranes, [3H]-CP-55,940). Conditions: for CB2 receptor binding percent inhibition: test concentration not stated; for inhibition at 0.25 µM: read-out: CB2 receptor binding percent inhibition, test concentration 0.25 μM (footnote 8); for inhibition at 0.2 µM: read-out: CB2 receptor binding percent inhibition, test concentration 0.2 μM (footnote 2). The method in brief:
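Membranes from SK-N-MC cells stably expressing human CB2 were incubated with radioligand and test compounds for 90 min at 30 °C in Tris-HCl buffer, pH 7.5, with MgCl2, EDTA and fatty-acid-free BSA. Filter-bound radioactivity was counted; IC50 was derived by linear regression of percent inhibition.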

In test [1] the target is T2, CB1 receptor (Homo sapiens, UniProt P21554).
T2 construct: expressed in transfected cells
The test is described as follows: Binding assay for CB1 agonists or inverse agonists (SK-N-MC membranes, [3H]-CP-55,940). Conditions: for IC50: Cannabinoid CB1 Receptor Binding IC50, calculated by linear regression from percent inhibition at various test concentrations; for inhibition at 0.25 µM: read-out: CB1 receptor binding percent inhibition, test concentration 0.25 μM (footnote 8); for inhibition at 0.015 µM: read-out: CB1 receptor binding percent inhibition, test concentration 0.015 μM (footnote 7); for inhibition at 0.2 µM: read-out: CB1 receptor binding percent inhibition, test concentration 0.2 μM (footnote 2). The method in brief: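 Membranes from SK-N-MC cells stably expressing human CB1 incubated with compound and [3H]-CP-55,940 ([…]) for 90 min at 30° C in Tris-HCl pH 7.5, MgCl2, EDTA, fatty-acid-free BSA. Non-specific binding defined with 10 uM WIN 55,212; filtration, scintillation count; IC50 by linear regression.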

For test [2], the target named is T2, CB1 receptor. The test is described as follows: cell-based. Put shortly: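 SK-N-MC cells stably co-expressing human CB1 and a CRE-β-galactosidase reporter; forskolin-induced β-gal activity measured after compound treatment, as % of vehicle-treated cells (100%). EC50 by linear regression from concentration series; otherwise % change at a single concentration.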

The mark [3] stands for this setting: read-out: CB1 receptor binding percent inhibition, test concentration 1 μM (footnote 1).
The mark [4] stands for this setting: forskolin induced β-galactosidase activity, SK-N-MC cells, read-out: CB1 Receptor Functional Inverse Agonist EC50.
Where [5] appears, read: read-out: CB1 receptor binding percent inhibition.
[6] abbreviates: CB1 Receptor Functional Inverse Agonist EC50, forskolin induced β-galactosidase activity, SK-N-MC cells.

Where “and” joins values, the source holds several entries; their conditions need not be identical. Equal values may be shown once. Read-outs that look alike come from different tables or passages of the source.

T1 sequence (P34972 whole entry): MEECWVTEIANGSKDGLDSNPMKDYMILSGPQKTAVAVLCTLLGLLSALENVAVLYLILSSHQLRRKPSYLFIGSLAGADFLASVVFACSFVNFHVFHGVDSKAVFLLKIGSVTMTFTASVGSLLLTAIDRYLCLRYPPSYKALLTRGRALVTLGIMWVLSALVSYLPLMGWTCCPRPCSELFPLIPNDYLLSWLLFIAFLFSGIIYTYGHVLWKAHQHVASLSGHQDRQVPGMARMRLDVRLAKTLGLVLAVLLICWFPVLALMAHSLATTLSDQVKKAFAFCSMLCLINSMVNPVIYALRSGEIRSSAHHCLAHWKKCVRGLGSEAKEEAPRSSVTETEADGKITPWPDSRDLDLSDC
T2 sequence (P21554 whole entry): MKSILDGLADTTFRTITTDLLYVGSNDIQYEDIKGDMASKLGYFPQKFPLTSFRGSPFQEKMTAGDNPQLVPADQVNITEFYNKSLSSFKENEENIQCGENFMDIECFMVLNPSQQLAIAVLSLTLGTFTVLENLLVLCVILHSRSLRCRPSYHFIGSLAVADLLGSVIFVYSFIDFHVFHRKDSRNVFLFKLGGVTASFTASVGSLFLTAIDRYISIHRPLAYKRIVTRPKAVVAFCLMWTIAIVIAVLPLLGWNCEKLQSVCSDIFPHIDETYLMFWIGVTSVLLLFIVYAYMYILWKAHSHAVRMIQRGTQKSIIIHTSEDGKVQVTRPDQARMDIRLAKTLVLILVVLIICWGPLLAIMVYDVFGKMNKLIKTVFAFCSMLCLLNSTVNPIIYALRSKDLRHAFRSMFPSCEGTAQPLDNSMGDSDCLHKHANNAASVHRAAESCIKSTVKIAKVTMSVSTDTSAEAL

As a reminder, the EC50 is the concentration at which the effect is half-maximal. As for `O=C(NN1CCOCC1)c1nn(-c2ccc(Cl)cc2Cl)c2c1CCCCC2Cc1cccc(Cl)c1` (centres unmarked) [Cpd 117, 8-(3-chloro-benzyl)-1-(2,4-dichloro-phenyl)-1,4,5,6,7,8-hexahydro-cycloheptapyrazole-3-carboxylic acid morpholin-4-ylamide], the “CB2 receptor binding percent inhibition” value on CB2 receptor is reported as 22%. Moreover, the inhibition at 1 µM at CB1 receptor [1] (setting [3]) was found to be 44%. Also, the EC50 on CB1 receptor [2] (setting [4]) is 300 nM.
As to `O=C(c1nn(-c2ccc(F)cc2F)c2c1CCCCC2Cc1cccc(F)c1)N1CCOCC1` (centres unmarked) [Cpd 118, [1-(2,4-difluoro-phenyl)-8-(3-fluoro-benzyl)-1,4,5,6,7,8-hexahydro-cycloheptapyrazol-3-yl]-morpholin-4-yl-methanone], at CB2 receptor, the “CB2 receptor binding percent inhibition” value was determined as 31%. Also, the inhibition at 1 µM at CB1 receptor [1] (setting [5]) is 4%. Besides, a half-maximal effect on CB1 receptor [2] (setting [6]) (EC50) was put at 100 nM.
For `O=C(N[C@@H]1c2ccccc2C[C@@H]1O)c1nn(C2CCCCC2)c2c1CCCC[C@@H]2Cc1ccc(F)cc1` [Cpd 120, (8R)-1-cyclohexyl-8-(4-fluoro-benzyl)-1,4,5,6,7,8-hexahydro-cycloheptapyrazole-3-carboxylic acid [(1R,2S)-2-hydroxy-indan-1-yl]-amide], at CB2 receptor, the “CB2 receptor binding percent inhibition” value turned out to be 16%. The inhibition at 1 µM at CB1 receptor [1] (setting [3]) was determined as 9%. The same compound returned an EC50 on CB1 receptor [2] (setting [6]) of 100 nM.
`O=S(=O)(/C=C/c1nn(-c2ccc(F)cc2F)c2c1CCCCC2Cc1ccc(F)cc1)NN1CCCCC1` (centres unmarked) [Cpd 122, (2E)-2-[1-(2,4-difluoro-phenyl)-8-(4-fluoro-benzyl)-1,4,5,6,7,8-hexahydro-cycloheptapyrazol-3-yl]-ethenesulfonic acid piperidin-1-ylamide]: on CB2 receptor, the “CB2 receptor binding percent inhibition” value is given as 0%. In addition, the inhibition at 1 µM at CB1 receptor [1] (setting [3]) amounted to 0%. For the same compound, the EC50 on CB1 receptor [2] (setting [6]) was 60 nM.
Consider `O=S(=O)(/C=C/c1nn(-c2ccc(F)cc2F)c2c1CCCCC2Cc1cccc(F)c1)NN1CCCCC1` (centres unmarked) [Cpd 123, (2E)-2-[1-(2,4-difluoro-phenyl)-8-(3-fluoro-benzyl)-1,4,5,6,7,8-hexahydro-cycloheptapyrazol-3-yl]-ethenesulfonic acid piperidin-1-ylamide], for which the “CB2 receptor binding percent inhibition” value on CB2 receptor came out at 14%. The inhibition at 1 µM at CB1 receptor [1] (setting [5]) came to 47%. The compound also gave an EC50 at CB1 receptor [2] (setting [6]) of 2900 nM.
For the compound `Cn1nc(/C=C/S(=O)(=O)NN2CCCCC2)c2c1C(Cc1cccc(F)c1)CCCC2` (centres unmarked) [Cpd 124, (2E)-2-[8-(3-fluoro-benzyl)-1-methyl-1,4,5,6,7,8-hexahydro-cycloheptapyrazol-3-yl]-ethenesulfonic acid piperidin-1-ylamide], at CB2 receptor, the “CB2 receptor binding percent inhibition” value is 47%. The inhibition at 1 µM on CB1 receptor [1] (setting [3]) was determined as 14%. Besides, the EC50 at CB1 receptor [2] (setting [4]) turned out to be 3400 nM.
`Cn1nc(/C=C/S(=O)(=O)NN2CCCCC2)c2c1C(Cc1ccc(F)cc1)CCCC2` (centres unmarked) [Cpd 128, (2E)-2-[8-(4-fluoro-benzyl)-1-methyl-1,4,5,6,7,8-hexahydro-cycloheptapyrazol-3-yl]-ethenesulfonic acid piperidin-1-ylamide]: the “CB2 receptor binding percent inhibition” value at CB2 receptor was found to be 0%. Further, the inhibition at 1 µM on CB1 receptor [1] (setting [3]) came out at 0%. Further, the EC50 at CB1 receptor [2] (setting [4]) amounted to 2700 nM.
A word on the IC50: it is the concentration that gives 50% inhibition. `CS(=O)(=O)n1nc(C(=O)NCc2ccccc2)c2c1C(Cc1ccc(F)cc1)CCCC2` (centres unmarked) [Cpd 130, 8-(4-fluoro-benzyl)-1-methanesulfonyl-1,4,5,6,7,8-hexahydro-cycloheptapyrazole-3-carboxylic acid benzylamide]: the inhibition at 0.25 µM on CB2 receptor was 98%. At CB1 receptor [1], the IC50 was 60 nM and the inhibition at 0.25 µM was 84%. The EC50 on CB1 receptor [2] (CB1 Receptor Functional Agonist EC50, SK-N-MC cells, forskolin induced β-galactosidase activity) was under 30 nM.
Regarding `C[C@@H](NC(=O)c1nn(-c2ccc(Cl)cc2Cl)c2c1CCCC/C2=C\c1ccc(Cl)cc1)c1ccccc1` [Cpd 131, (8E)-8-(4-chloro-benzylidene)-1-(2,4-dichloro-phenyl)-1,4,5,6,7,8-hexahydro-cycloheptapyrazole-3-carboxylic acid [(1R)-1-phenyl-ethyl]-amide], the inhibition at 0.25 µM on CB2 receptor is 34%. For the same compound, at CB1 receptor [1], the IC50 is 6 nM, the inhibition at 0.015 µM was found to be 53% and the inhibition at 0.25 µM was determined as 93%. The same compound returned an EC50 on CB1 receptor [2] (setting [6]) of under 30 nM.
For `C[C@@H](NC(=O)c1nn(-c2ccc(Cl)cc2Cl)c2c1CCCC/C2=C\c1ccc(Cl)cc1)C1CCCCC1` [Cpd 132, (8E)-8-(4-chloro-benzylidene)-1-(2,4-dichloro-phenyl)-1,4,5,6,7,8-hexahydro-cycloheptapyrazole-3-carboxylic acid [(1R)-1-cyclohexyl-ethyl]-amide], at CB2 receptor, the inhibition at 0.25 µM was found to be 42%. In addition, at CB1 receptor [1], the IC50 is 5 nM, the inhibition at 0.015 µM was found to be 64% and the inhibition at 0.25 µM is 94%. This compound also displayed an EC50 on CB1 receptor [2] (setting [6]) of 10 nM.
In the case of `O=C(NN1CCCCC1)c1nn(-c2ccc(Cl)cc2Cl)c2c1CCCC/C2=C\c1ccc(Cl)cc1` [Cpd 133, (8E)-8-(4-chloro-benzylidene)-1-(2,4-dichloro-phenyl)-1,4,5,6,7,8-hexahydro-cycloheptapyrazole-3-carboxylic acid piperidin-1-ylamide], the inhibition at 0.25 µM on CB2 receptor was found to be 29%. Moreover, on CB1 receptor [1], the IC50 is 100 nM and the inhibition at 0.25 µM was found to be 66%. In addition, at CB1 receptor [2] (setting [6]), it took 30 nM to reach a half-maximal effect (EC50).
Regarding `O=C(NN1CCOCC1)c1nn(-c2ccc(Cl)cc2Cl)c2c1CCCC/C2=C\c1ccc(Cl)cc1` [Cpd 134, (8E)-8-(4-chloro-benzylidene)-1-(2,4-dichloro-phenyl)-1,4,5,6,7,8-hexahydro-cycloheptapyrazole-3-carboxylic acid morpholin-4-ylamide], the inhibition at 0.25 µM on CB2 receptor was found to be 28%; at CB1 receptor [1], 58%. Also, at CB1 receptor [2] (setting [6]), the EC50 was found to be 10 nM.
Take `NS(=O)(=O)c1ccc(CNC(=O)c2nn(-c3ccc(Cl)cc3Cl)c3c2CCCC/C3=C\c2ccc(Cl)cc2)cc1` [Cpd 135, (8E)-8-(4-chloro-benzylidene)-1-(2,4-dichloro-phenyl)-1,4,5,6,7,8-hexahydro-cycloheptapyrazole-3-carboxylic acid 4-sulfamoyl-benzylamide]: the inhibition at 0.25 µM on CB2 receptor came out at 25%. Besides, on CB1 receptor [1], the IC50 is 50 nM and the inhibition at 0.25 µM was 65%. The compound further gave an EC50 at CB1 receptor [2] (setting [6]) of under 30 nM.
In the case of `O=C(NS(=O)(=O)c1ccccc1)c1nn(-c2ccc(Cl)cc2Cl)c2c1CCCC/C2=C\c1ccc(Cl)cc1` [Cpd 136, (8E)-N-[8-(4-chloro-benzylidene)-1-(2,4-dichloro-phenyl)-1,4,5,6,7,8-hexahydro-cycloheptapyrazole-3-carbonyl]-benzenesulfonamide], the inhibition at 0.25 µM at CB2 receptor amounted to 18%; on CB1 receptor [1], 39%. Also, on CB1 receptor [2] (setting [6]), a half-maximal effect (EC50) was put at 30 nM.
Consider `CC(NC(=O)c1nn(-c2ccc(Cl)cc2Cl)c2c1CCCC/C2=C\c1ccc(Cl)cc1)c1ccc(Cl)cc1` (centres unmarked) [Cpd 137, (8E)-8-(4-chloro-benzylidene)-1-(2,4-dichloro-phenyl)-1,4,5,6,7,8-hexahydro-cycloheptapyrazole-3-carboxylic acid [1-(4-chloro-phenyl)-ethyl]-amide], for which the inhibition at 0.25 µM on CB2 receptor was determined as 0%. Also, on CB1 receptor [1], the IC50 was 10 nM, the inhibition at 0.015 µM was found to be 57% and the inhibition at 0.25 µM amounted to 77%. Moreover, the EC50 on CB1 receptor [2] (setting [6]) was determined as 30 nM.
With `C[C@H](NC(=O)c1nn(-c2ccc(Cl)cc2Cl)c2c1CCCC/C2=C\c1ccc(Cl)cc1)C1CCCCC1` [Cpd 138, (8E)-8-(4-chloro-benzylidene)-1-(2,4-dichloro-phenyl)-1,4,5,6,7,8-hexahydro-cycloheptapyrazole-3-carboxylic acid [(1S)-1-cyclohexyl-ethyl]-amide], the inhibition at 0.2 µM on CB2 receptor was 22%; on CB1 receptor [1], 71%. Moreover, the IC50 on CB1 receptor [1] is 30 nM. At CB1 receptor [2] (setting [6]), this compound came in with an EC50 of 100 nM.
In the case of `C[C@@H](NC(=O)c1nn(-c2ccc(Cl)cc2Cl)c2c1CCCC/C2=C\c1ccc(F)cc1)c1ccccc1` [Cpd 146, (8E)-1-(2,4-dichloro-phenyl)-8-(4-fluoro-benzylidene)-1,4,5,6,7,8-hexahydro-cycloheptapyrazole-3-carboxylic acid [(1R)-1-phenyl-ethyl]-amide], the IC50 at CB2 receptor (Cannabinoid CB2 Receptor Binding IC50, calculated by linear regression from percent inhibition at various test concentrations) was 2300 nM. Moreover, at CB2 receptor, the inhibition at 0.2 µM stood at 10% and the “CB2 receptor binding percent inhibition” value turned out to be 3%. At CB1 receptor [1], the IC50 is 8 nM and 10 nM; the inhibition at 0.2 µM came out at 93%. This compound also yielded an EC50 on CB1 receptor [2] (setting [6]) of 20 nM.
`C[C@@H](NC(=O)c1nn(-c2ccc(Cl)cc2Cl)c2c1CCCC/C2=C\c1ccc(F)cc1)C1CCCCC1` [Cpd 147, (8E)-1-(2,4-dichloro-phenyl)-8-(4-fluoro-benzylidene)-1,4,5,6,7,8-hexahydro-cycloheptapyrazole-3-carboxylic acid [(1R)-1-cyclohexyl-ethyl]-amide]: the inhibition at 0.2 µM at CB2 receptor was 23%. On CB1 receptor [1], the IC50 is 7 nM and the inhibition at 0.2 µM came out at 94%. At CB1 receptor [2] (setting [6]), this compound gave an EC50 of 30 nM.
